Key:
[1] = test system: Monilinia fructicola (brown rot); assay: Synergy assessment of TCA and trans-Cinnamaldehyde with commercial fungicides, growth area on PDA after 4 days; assay type: cell-based; settings: FIG. 11
Source text: Following the procedures above and those in Hazir et al (2017b, J. Invertebrate Path. 145: 1-8), synergy assessments were implemented to compare trans-Cinnamic acid to an exemplary analog, trans-Cinnamaldehyde. The target phytopathogen was Monilinia fructicola (brown rot). Treatment effects were compared by measuring vegetative growth of the phytopathogens in vitro when they were exposed to the fungicidal agents applied alone or in combination. Solutions of the fungicidal treatments were incorporated into potato dextrose agar (PDA) to achieve the desired concentrations, and autoclaved. Prior to autoclaving the PDA, the prescribed volume of distilled water was reduced to allow addition of the fungicide solutions. Controls consisted of PDA without any amendment or PDA with acetone only (the solvent used for TCA). Trans-Cinnamic acid and trans-Cinnamaldehyde were applied alone or with commercial fungicides […]® (extract of Reynoutria sachalinensis) or Serenade® (Bacillus subtilis). After 4 days the area of M. fructicola growth was determined. […] [table]

V. effusa = assay: Suppression of spore germination in potato dextrose broth with 10% bacterial supernatant or TCA; assay type: cell-based, Venturia effusa
Protocol: The spores of V. carpophila and V. effusa were used to determine the inhibitory effect of the bacterial supernatants on germination. Supernatants tested were from X. nematophila, X. cabanillasii, X. bovienii, X. szentirmaii, strain 17C+E, P. temperate, P. luminescens (VS) and P. luminescens (K-22). The conidia suspension (0.1 ml) of V. effusa or V. carpophila was added to 0.8 ml potato dextrose broth (PDB) in 2 ml eppendorf tubes containing 0.1 ml (10% v/v) bacterial supernatant. Controls were PDB alone and conidial suspension without supernatant. Because TCA derived from Photorhabdus spp. was identified as an active compound with significant antifungal activity (Bock et al. 2014), TCA was added (1.27 mg/ml) in all experiments for comparison as well. The stock solution of TCA (99% purity, Sigma, St. Louis, Mo.) was prepared with 12.7 g dissolved in 100 ml ethanol (96%). […] The tubes were incubated at 25° C. for 48 hours and the first 100 conidia were counted under the microscope (400×) to determine percentage spore germination (which was used to determine treatment effects). […] An inhibition rate was determined according to the formula: 100×[(the average percentage of spores germinated in the control−the average percentage of spores germinated in the treatment)/the average percentage of spores germinated in the control] […]

Glomerella cingulata = assay: Suppression of in vitro vegetative growth (colony area) on agar amended with 10% supernatant or TCA; assay type: cell-based; settings: G. cingulata; FIG. 2; 7 days
Venturia effusa = assay: as above; assay type: cell-based; settings: V. effusa; FIG. 4; 7 days
Source text: (§1) Treatment effects were compared by measuring in vitro vegetative growth of the phytopathogens V. carpophila and V. effusa when exposed to the same bacterial exudates evaluated above in the germination study. Solutions of the fungicidal treatments were incorporated into PDA and autoclaved. Prior to autoclaving the PDA, the prescribed volume of distilled water was reduced to allow addition of treatment suspensions. Controls consisted of PDA without any amendment or PDA with acetone only (the solvent for TCA). The media were vortexed when cooled to 40-42° C. and poured to Petri dishes.
(§2) A 5 mm diameter mycelia plug from a fungal culture plate was transferred onto the center surface of each agar dish (Fang et al. 2011; Hazir et al. 2017a) and incubated at 25° C. Vegetative growth of the fungus was measured after 7 days. Growth was measured in two perpendicular directions to obtain the approximate area of the fungal mat.

Venturia carpophila [2] = assay: as above; assay type: cell-based; settings: V. carpophila; FIG. 5; 7 days
Source text: as §1, §2

Venturia carpophila [3] = assay: Suppression of spore germination in potato dextrose broth with 10% bacterial supernatant or TCA; assay type: cell-based; settings: V. carpophila
Protocol: The spores of V. carpophila and V. effusa were used to determine the inhibitory effect of the bacterial supernatants on germination. Supernatants tested were from X. nematophila, X. cabanillasii, X. bovienii, X. szentirmaii, strain 17C+E, P. temperate, P. luminescens (VS) and P. luminescens (K-22). The conidia suspension (0.1 ml) of V. effusa or V. carpophila was added to 0.8 ml potato dextrose broth (PDB) in 2 ml eppendorf tubes containing 0.1 ml (10% v/v) bacterial supernatant. Controls were PDB alone and conidial suspension without supernatant. Because TCA derived from Photorhabdus spp. was identified as an active compound with significant antifungal activity (Bock et al. 2014), TCA was added (1.27 mg/ml) in all experiments for comparison as well. The stock solution of TCA (99% purity, Sigma, St. Louis, Mo.) was prepared with 12.7 g dissolved in 100 ml ethanol (96%). Each treatment was replicated three times, and the experiment was repeated once on a different date. The tubes were incubated at 25° C. for 48 hours and the first 100 conidia were counted under the microscope (400×) to determine percentage spore germination (which was used to determine treatment effects). […] An inhibition rate was determined according to the formula: 100×[(the average percentage of spores germinated in the control−the average percentage of spores germinated in the treatment)/the average percentage of spores germinated in the control] (Fang et al. 2011). Analysis of Variance (ANOVA) (SAS V9.3, SAS Institute Inc., Cary, N.C.) was also applied to the data for V. carpophila.

Monilinia fructicola = assay: Suppression of in vitro vegetative growth (colony area) on agar amended with 10% supernatant or TCA; assay type: cell-based; settings: M. fructicola; FIG. 3; 7 days

Row | Structure (SMILES) | Interaction (level of M. fructicola suppression) when combined with commercial fungicides such as Regalia and Serenade [1] | percentage spore germination compared among treatments (V. effusa) | inhibition at 1270 µg/mL (V. effusa; Venturia effusa, 10% v/v supernatant or TCA 1.27 mg/ml, 48 hours at 25° C., read-out: Inhibition rate of spore germination (%)) | suppression of vegetative growth compared among treatments (Glomerella cingulata) | suppression of vegetative growth compared among treatments (Venturia effusa) | suppression of vegetative growth compared among treatments (Venturia carpophila [2]) | percentage spore germination (Venturia carpophila [3]; 10% supernatant or TCA 1.27 mg/ml, 48 hours) | level of suppression of spore germination compared among treatments (Venturia carpophila [3]; FIG. 1) | inhibition at 1270 µg/mL (Venturia carpophila [3]; Venturia carpophila, 10% v/v supernatant or TCA 1.27 mg/ml, 48 hours at 25° C., read-out: Inhibition rate of spore germination (%)) | suppression of vegetative growth compared among treatments (Monilinia fructicola)
1 | O=C/C=C/c1ccccc1 [CA, trans-Cinnamaldehyde] | synergistic |  |  |  |  |  |  |  |  | 
2 | O=C(O)/C=C/c1ccccc1 [TCA, trans-Cinnamic acid] | synergistic | the least | 76.7% | most suppression | highest suppression | most suppression | 8.66% | highest level of suppression | 87.7% | greatest suppression
